Laboratory results from the supplement of paper PMC11451515.

Test system: NOMO1
Assay: cell viability relative to DMSO control; higher = less cytotoxic
Settings: 48 h
Summary of the method: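 NOMO1 or SEM (500 cells/well) or P12-Ichikawa (1000 cells/well) leukemia cells were adapted for at least four passages in each medium. They were seeded in 1536-well plates (5 μl) and pin-dosed with library compounds in DMSO over an 11-point threefold series, 47 μM to 0.79 nM. CellTiter-Glo One luminescence was read after 48 h at 37°C. Viability is the per-plate percentage relative to DMSO wells, with cell-free wells as background.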

[1] = RPMI 5 mM glucose + 10% FBS, 0.000781 µM
[2] = RPMI 5 mM glucose + 10% FBS, 0.00234 µM
[3] = RPMI 5 mM glucose + 10% FBS, 0.00702 µM
[4] = RPMI 5 mM glucose + 10% FBS, 0.0211 µM
[5] = RPMI 5 mM glucose + 10% FBS, 0.0632 µM
[6] = RPMI 5 mM glucose + 10% FBS, 0.19 µM
[7] = RPMI 5 mM glucose + 10% FBS, 0.569 µM
[8] = RPMI 5 mM glucose + 10% FBS, 1.71 µM
[9] = RPMI 5 mM glucose + 10% FBS, 5.12 µM
[10] = RPMI 5 mM glucose + 10% FBS, 15.4 µM
[11] = RPMI 5 mM glucose + 10% FBS, 46.1 µM
[12] = RPMI 5 mM glucose + 10% dialyzed FBS, 0.000781 µM
[13] = RPMI 5 mM glucose + 10% dialyzed FBS, 0.00234 µM
[14] = RPMI 5 mM glucose + 10% dialyzed FBS, 0.00702 µM
[15] = RPMI 5 mM glucose + 10% dialyzed FBS, 0.0211 µM
[16] = RPMI 5 mM glucose + 10% dialyzed FBS, 0.0632 µM
[17] = RPMI 5 mM glucose + 10% dialyzed FBS, 0.19 µM
[18] = RPMI 5 mM glucose + 10% dialyzed FBS, 0.569 µM
[19] = RPMI 5 mM glucose + 10% dialyzed FBS, 1.71 µM
[20] = RPMI 5 mM glucose + 10% dialyzed FBS, 5.12 µM
[21] = RPMI 5 mM glucose + 10% dialyzed FBS, 15.4 µM
[22] = RPMI 5 mM glucose + 10% dialyzed FBS, 46.1 µM

| SMILES | cell viability [1] [%] | cell viability [2] [%] | cell viability [3] [%] | cell viability [4] [%] | cell viability [5] [%] | cell viability [6] [%] | cell viability [7] [%] | cell viability [8] [%] | cell viability [9] [%] | cell viability [10] [%] | cell viability [11] [%] | cell viability [12] [%] | cell viability [13] [%] | cell viability [14] [%] | cell viability [15] [%] | cell viability [16] [%] | cell viability [17] [%] | cell viability [18] [%] | cell viability [19] [%] | cell viability [20] [%] | cell viability [21] [%] | cell viability [22] [%] |
| --- | --- | --- | --- | --- | --- | --- | --- | --- | --- | --- | --- | --- | --- | --- | --- | --- | --- | --- | --- | --- | --- | --- |
| O=[S+]([O-])(/N=C/c1c(O)ccc2ccccc12)c1cccs1 | 113 | 126 | 111 | 124 | 129 | 129 | 114 | 113 | 126 | 107 | 126 |  |  |  |  |  |  |  |  |  |  |  |
| NC(=O)c1cnc(-c2ccc(C3(N)CCC3)cc2)c(-c2ccccc2)c1 | 119 | 117 | 126 | 117 | 136 | 122 | 128 | 132 | 127 | 131 | 76.9 |  |  |  |  |  |  |  |  |  |  |  |
| Cc1ccc(NC(=O)Nc2cc(C(F)(F)F)ccc2F)cc1Nc1ccc2c(c1)NC(=O)/C2=C\c1ccc[nH]1 | 108 | 126 | 118 | 124 | 133 | 139 | 149 | 161 | 136 | 132 | 40.4 | 116 | 124 | 140 | 140 | 149 | 150 | 149 | 160 | 154 | 115 | 28.1 |
| NCCCC(O)(P(=O)(O)O)P(=O)(O)O.O.O.O.[Na+] | 102 |  |  |  | 117 | 117 | 102 | 106 | 102 |  |  |  | 116 | 107 | 123 | 115 | 110 | 111 | 113 | 114 | 87.8 | 61.7 |
| CCN1\C=C(C(O)=O)/C(=O)C2=C1C=C(N3CCN(C)CC3)C(=C2)F | 97.7 | 104 | 106 | 108 | 106 | 113 | 107 | 104 | 82 | 71 | 51.9 | 123 | 112 | 112 | 154 | 157 | 77 | 71.9 | 47.7 | 57.6 | 58.5 | 32.6 |
| NC/1=N/C(=O)N(C[C@@H](CO)OC[P](O)(O)=O)/C=C1 | 125 | 149 | 123 | 122 | 136 | 135 | 128 | 119 | 122 | 123 | 128 |  |  |  |  |  |  |  |  |  |  |  |
| CO[C@H]1/C=C/O[C@@]2(C)Oc3c(C)c(O)c4c(O)c(c(/C=N/N5CCN(C)CC5)c(O)c4c3C2=O)NC(=O)/C(C)=C\C=C\[C@H](C)[C@H](O)[C@@H](C)[C@@H](O)[C@@H](C)[C@H](OC(C)=O)[C@@H]1C | 111 | 123 | 117 | 127 | 129 | 118 | 125 | 123 | 111 | 102 | 98.5 | 118 | 119 | 129 | 115 | 122 | 117 | 104 | 112 | 119 | 96.1 | 79.6 |
